Data as given in ChEMBL document CHEMBL1146720, “Bicyclic anti-VZV nucleosides: thieno analogues bearing an alkylphenyl side chain have reduced antiviral activity” (Bioorg Med Chem Lett, 2004).

Experiments:
[1] = system: Human alphaherpesvirus 3; assay: Antiviral activity against Varicella-Zoster virus (OKA); type: functional, organism-based
[2] = system: HEL (human embryonic lung); assay: Minimal cytotoxic concentration, required to alter microscopically detectable cell morphology
[3] = system: Human alphaherpesvirus 3; assay: Antiviral activity against Varicella-Zoster virus (thymidine kinase deficient) TK-(07/1); type: functional, organism-based
[4] = system: HEL (human embryonic lung); assay: Cytotoxic concentration required to inhibit Hel cell growth
[5] = system: Human alphaherpesvirus 3; assay: Antiviral activity against Varicella-Zoster virus (YS); type: functional, organism-based

SMILES | EC50 [1] | MCC [2] | EC50 [3] | CC50 [4] | EC50 [5]
CCCCCCCc1ccc(-c2cc3cn([C@H]4C[C@H](O)[C@@H](CO)O4)c(=O)nc3s2)cc1 | 270 nM | 50 µM | > 20000 nM | > 200000 nM | 180 nM
CCc1ccc(-c2cc3cn([C@H]4C[C@H](O)[C@@H](CO)O4)c(=O)nc3s2)cc1 | 200 nM | > 200 µM | 20000 nM | > 200000 nM | 150 nM
CCCc1ccc(-c2cc3cn([C@H]4C[C@H](O)[C@@H](CO)O4)c(=O)nc3s2)cc1 | 90 nM | 80 µM | > 16000 nM | > 200000 nM | 60 nM
CCCCCc1ccc(-c2cc3cn([C@H]4C[C@H](O)[C@@H](CO)O4)c(=O)nc3s2)cc1 | 25 nM | 50 µM | 20000 nM | > 200000 nM | 14 nM
CCCCCCCCc1ccc(-c2cc3cn([C@H]4C[C@H](O)[C@@H](CO)O4)c(=O)nc3s2)cc1 | – | ≥ 20 µM | > 20000 nM | > 200000 nM | 3400 nM
CCCCCCCCc1cc2cn([C@H]3C[C@H](O)[C@@H](CO)O3)c(=O)nc2s1 | 2 nM | 20 µM | > 5000 nM | 53000 nM | 5 nM
CCCCCCc1ccc(-c2cc3cn([C@H]4C[C@H](O)[C@@H](CO)O4)c(=O)nc3s2)cc1 | 80 nM | 200 µM | > 50000 nM | > 200000 nM | 43 nM
CCCCc1ccc(-c2cc3cn([C@H]4C[C@H](O)[C@@H](CO)O4)c(=O)nc3s2)cc1 | 28 nM | 50 µM | > 3200 nM | > 200000 nM | 20 nM
Nc1nc2c(ncn2COCCO)c(=O)[nH]1 [ACYCLOVIR] | 1100 nM | > 200 µM | 40000 nM | > 400000 nM | –
